Laboratory results published in patent US7994119B2, “Compounds for control of appetite” (University Of Cincinnati, priority 2004, dated 2011).

Assays:
[1] = test system: 129/J male mice; test: feeding patterns of fasted mice after intraperitoneal injection (food intake); type: in vivo; settings: mice fasted 24 hours; for control of food intake (PYY analogs): numbers only in FIGS. 3-5
Method: (§1) To study the feeding patterns of animals treated with the extended tripeptide BG-116, eight week old 129/J male mice are individually housed under 12-hour light/dark cycles with free access to water and standard chow. After acclimatizing for two weeks, mice are fasted 24 hours before the experiment. Saline (0.1 ml) or peptide (2 mg/mice) in saline (0.1 ml) is injected intraperitoneally, and the food intake during the next 4, 6, and 24 hours is monitored and quantified.
as §1, with “the O-glycosylated tripeptide,” for “the extended tripeptide BG-116,”, “next 4” for “next 4, 6,”, “and 6” for “and 24”
as §1, with “with BT-48 or N-α-Ac[Nle^24,28, Trp^30, Nva^31, ψ^35/36]PYY(22-36)-NH2 wherein ψ is —CH2-NH— (SEQ. ID. NO. 8),” for “with the extended tripeptide BG-116,”, “peptide (100 μg/mice)” for “peptide (2 mg/mice)”, “next 4” for “next 4, 6,”, “and 6” for “and 24”
as §1, with “BT-56 or N-α-Ac-[Trp^27, ψ^35/36]PYY(25-36)-NH2 wherein ψ is —CH2-NH— (SEQ. ID. NO. 7),” for “extended tripeptide BG-116,”, “(100 μg/mice)” for “(2 mg/mice)”, “4” for “4, 6, and 24”
as §1, with “BWX-115 or N-α-Ac-[Trp^30]PYY(25-36)-NH2 wherein ψ is —CH2-NH— (SEQ. ID. NO. 6),” for “the extended tripeptide BG-116,”, “(20 μg/mice)” for “(2 mg/mice)”, “4” for “4, 6,”

[2] = target: Y4 (Homo sapiens, UniProt P50391); settings: cited from earlier work
[3] = test system: normal and fasted mice and rats, normal and obese humans; settings: peripheral administration; cited from earlier work
[4] = target: T1, Y5 (Homo sapiens, UniProt Q15761); settings: cited from earlier work
T1 sequence (Q15761 1-445): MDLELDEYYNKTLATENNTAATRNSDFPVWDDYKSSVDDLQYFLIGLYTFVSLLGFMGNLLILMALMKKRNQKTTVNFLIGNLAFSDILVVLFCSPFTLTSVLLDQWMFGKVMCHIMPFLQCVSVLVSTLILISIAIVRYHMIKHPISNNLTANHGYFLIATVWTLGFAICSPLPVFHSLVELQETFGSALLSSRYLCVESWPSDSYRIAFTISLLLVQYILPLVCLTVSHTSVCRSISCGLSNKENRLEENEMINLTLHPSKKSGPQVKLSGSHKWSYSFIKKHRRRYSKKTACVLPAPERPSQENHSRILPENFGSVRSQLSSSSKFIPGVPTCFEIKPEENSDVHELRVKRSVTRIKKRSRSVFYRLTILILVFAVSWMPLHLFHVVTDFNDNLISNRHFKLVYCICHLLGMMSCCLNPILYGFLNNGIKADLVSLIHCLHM

Sequence of Y4 (P50391 whole entry): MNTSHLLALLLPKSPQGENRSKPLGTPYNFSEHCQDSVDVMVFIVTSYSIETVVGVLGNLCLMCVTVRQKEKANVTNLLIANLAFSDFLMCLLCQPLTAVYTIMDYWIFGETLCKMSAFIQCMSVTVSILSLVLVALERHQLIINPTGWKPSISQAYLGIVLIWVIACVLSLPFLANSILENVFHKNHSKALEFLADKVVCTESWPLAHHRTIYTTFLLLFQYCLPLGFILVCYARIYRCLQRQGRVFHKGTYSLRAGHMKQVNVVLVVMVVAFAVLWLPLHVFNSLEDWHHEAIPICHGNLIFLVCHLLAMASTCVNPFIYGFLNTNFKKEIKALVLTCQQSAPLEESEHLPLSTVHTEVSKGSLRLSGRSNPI

Q: With N-α-Ac-Trp-Arg-Tyr-[β-D-Glc]-NH2 [BG-7] as the substance, how does the “inhibition of feeding (O-glycosylated tripeptide)” value ([1]; numbers only in FIG. 2) read?
A: Its value is “can inhibit feeding in subjects”.

Q: Which “control of food intake (PYY analogs)” value [1] does the source give for “N-α-Ac-[Trp^27, ψ^35/36]PYY(25-36)-NH2 (Ac-RHWLNLVTRQRY-NH2; also: reduced CH2-NH bond between residues 35/36) [BT-56]” here?
A: Its value is “could be used to control food intake in animals and humans”.

Q: With “N-α-Ac-[Trp^30]PYY(25-36)-NH2 (Ac-RHYLNWVTRQRY-NH2) [BWX-115]” as the substance, how does the “control of food intake (PYY analogs)” value [1] read?
A: The value was “could be used to control food intake in animals and humans”.

Q: With “N-α-Ac[Nle^24,28, Trp^30, Nva^31, ψ^35/36]PYY(22-36)-NH2 (ASXRHYXNWXTRQRY; N-acetyl, C-amide, reduced CH2-NH bond 35/36; Artficial peptide) [BT-48]” as the substance, how does the “control of food intake (PYY analogs)” value [1] read?
A: The value was “could be used to control food intake in animals and humans”.

Q: Which “activation of Y4 receptors” value [2] does the source give for PYY(3-36): a NPY Y2-preferring ligand here?
A: The value was “potently activate”.

Q: And the food intake [3]?
A: The food intake was “attenuate food intake”.

Q: What about the “activation of Y5 receptors” value [4] of the same substance?
A: Its value is “potently activate”.
